Measurements taken from patent US10409869B2, “(R)- and (S)-1-(3-(3-N,N-dimethylaminocarbonyl)phenoxyl-4-nitrophenyl)-1-ethyl-N,N'-bis (ethylene)phosphoramidate, compositions and methods for their use and preparation” (OBI Pharma, Inc., priority 2015, dated 2019).

How the values were obtained:
[1] = Hematology in monkeys, 2 mg/kg 30-min IV infusion; assay type: in vivo, Cynomolgus monkeys
Experimental: (§1) TH 3423 and TH 3424 were tested in […] naïve monkeys (1 male and one female for each compound at 2 mg/kg) with 30-min intravenous infusion, TK sampling: on Day 1 and Day 15: 0.25, 0.5, 0.75, 1 and 2 hr post infusion initiation. Serum chemistry and hematology: pre-dose (Day 1), day 5, day 8 (pre-dose), day 15 (pre-dose), day 22 and day 28. Clinical observation: Daily during the study, total 35 days. Food consumption: Daily during the study, total 35 days. Bodyweight measurement: Twice weekly for five weeks.

[2] = Plasma concentration and TK after 30-min IV infusion at 2 mg/kg; assay type: in vivo, Cynomolgus monkeys; details: for AUC(0-inf) / AUC(0-t): Cynomolgus, cynomolgus monkey, plasma, iv, 2 mg/kg
Experimental: as §1

For `C[C@@H](OP(=O)(N1CC1)N1CC1)c1ccc([N+](=O)[O-])c(Oc2cccc(C(=O)N(C)C)c2)c1` (single isomer, unassigned) [TH3423], the “% BASO” value ([1]; female, Day 1 (pre-dose)) was 0.0%, the “% EOS” value ([1]; female, Day 1 (pre-dose)) was 2.3% and the “% MONO” value ([1]; female, Day 1 (pre-dose)) was 4.8%. For the same compound, the “% NEUT” value ([1]; female, Day 1 (pre-dose)) was 47.9%, the HCT ([1]; female, Day 1 (pre-dose)) was 35% and the HGB ([1]; female, Day 1 (pre-dose)) was 112 g/L. The LYM ([1]; female, Day 1 (pre-dose)) was 45%, the MCH ([1]; female, Day 1 (pre-dose)) was 24 pg and the MCHC ([1]; female, Day 1 (pre-dose)) was 320 g/L. For the same compound, the MCV ([1]; female, Day 1 (pre-dose)) was 74.9 fL, the MPV ([1]; female, Day 1 (pre-dose)) was 10.6 fL and the PCT ([1]; female, Day 1 (pre-dose)) was 0.338%. It also gave a PDW ([1]; female, Day 1 (pre-dose)) of 14.8, a PLT ([1]; female, Day 1 (pre-dose)) of 3.18e+11 L⁻¹ and an RBC ([1]; female, Day 1 (pre-dose)) of 4.67e+12 L⁻¹. For the same compound, the RDW-CV ([1]; female, Day 1 (pre-dose)) was 11.8%, the RDW-SD ([1]; female, Day 1 (pre-dose)) was 37.2 fL and the WBC ([1]; female, Day 1 (pre-dose)) was 6.7e+09 L⁻¹. The abs_basos ([1]; female, Day 1 (pre-dose)) was 0 L⁻¹, the abs_eos ([1]; female, Day 1 (pre-dose)) was 1.5e+08 L⁻¹ and the abs_lymphs ([1]; female, Day 1 (pre-dose)) was 3.02e+09 L⁻¹. The abs_monos ([1]; female, Day 1 (pre-dose)) was 3.2e+08 L⁻¹, the abs_neuts ([1]; female, Day 1 (pre-dose)) was 3.21e+09 L⁻¹ and the “% BASO” value ([1]; female, Day 8 (pre-dose)) was 0.20%. The “% EOS” value ([1]; female, Day 8 (pre-dose)) was 2.30%, the “% MONO” value ([1]; female, Day 8 (pre-dose)) was 0.00% and the “% NEUT” value ([1]; female, Day 8 (pre-dose)) was 61.90%. It also gave an HCT ([1]; female, Day 8 (pre-dose)) of 39.80%, an HGB ([1]; female, Day 8 (pre-dose)) of 128.00 g/L and an LYM ([1]; female, Day 8 (pre-dose)) of 35.60%. The MCH ([1]; female, Day 8 (pre-dose)) was 24.60 pg, the MCHC ([1]; female, Day 8 (pre-dose)) was 322.00 g/L and the MCV ([1]; female, Day 8 (pre-dose)) was 76.30 fL. The MPV ([1]; female, Day 8 (pre-dose)) was 9.60 fL, the PCT ([1]; female, Day 8 (pre-dose)) was 0.67% and the PDW ([1]; female, Day 8 (pre-dose)) was 15.40. For the same compound, the PLT ([1]; female, Day 8 (pre-dose)) was 6.99e+11 L⁻¹, the RBC ([1]; female, Day 8 (pre-dose)) was 5.21e+12 L⁻¹ and the RDW-CV ([1]; female, Day 8 (pre-dose)) was 12.30%. It also gave an RDW-SD ([1]; female, Day 8 (pre-dose)) of 39.50 fL, a WBC ([1]; female, Day 8 (pre-dose)) of 1.035e+10 L⁻¹ and an abs_basos ([1]; female, Day 8 (pre-dose)) of 2e+07 L⁻¹. For the same compound, the abs_eos ([1]; female, Day 8 (pre-dose)) was 2.5e+08 L⁻¹, the abs_lymphs ([1]; female, Day 8 (pre-dose)) was 3.68e+09 L⁻¹ and the abs_monos ([1]; female, Day 8 (pre-dose)) was 0 L⁻¹. The abs_neuts ([1]; female, Day 8 (pre-dose)) was 6.4e+09 L⁻¹, the “% BASO” value ([1]; female, Day 15 (pre-dose)) was 0.10% and the “% EOS” value ([1]; female, Day 15 (pre-dose)) was 2.70%. The “% MONO” value ([1]; female, Day 15 (pre-dose)) was 6.30%, the “% NEUT” value ([1]; female, Day 15 (pre-dose)) was 63.0% and the HCT ([1]; female, Day 15 (pre-dose)) was 33.9%. The HGB ([1]; female, Day 15 (pre-dose)) was 115 g/L, the LYM ([1]; female, Day 15 (pre-dose)) was 27.90% and the MCH ([1]; female, Day 15 (pre-dose)) was 24.0 pg. The MCHC ([1]; female, Day 15 (pre-dose)) was 339 g/L, the MCV ([1]; female, Day 15 (pre-dose)) was 70.6 fL and the MPV ([1]; female, Day 15 (pre-dose)) was 8.70 fL. It also gave a PCT ([1]; female, Day 15 (pre-dose)) of 0.46%, a PDW ([1]; female, Day 15 (pre-dose)) of 15.10 and a PLT ([1]; female, Day 15 (pre-dose)) of 5.33e+11 L⁻¹. For the same compound, the RBC ([1]; female, Day 15 (pre-dose)) was 4.8e+12 L⁻¹, the RDW-CV ([1]; female, Day 15 (pre-dose)) was 10.9% and the RDW-SD ([1]; female, Day 15 (pre-dose)) was 32.3 fL. The WBC ([1]; female, Day 15 (pre-dose)) was 9.56e+09 L⁻¹, the abs_basos ([1]; female, Day 15 (pre-dose)) was 1e+07 L⁻¹ and the abs_eos ([1]; female, Day 15 (pre-dose)) was 2.6e+08 L⁻¹. For the same compound, the abs_lymphs ([1]; female, Day 15 (pre-dose)) was 2.67e+09 L⁻¹, the abs_monos ([1]; female, Day 15 (pre-dose)) was 6e+08 L⁻¹ and the abs_neuts ([1]; female, Day 15 (pre-dose)) was 6.02e+09 L⁻¹. The “% BASO” value ([1]; male, Day 1 (pre-dose)) was 0.0%, the “% EOS” value ([1]; male, Day 1 (pre-dose)) was 2.4% and the “% MONO” value ([1]; male, Day 1 (pre-dose)) was 5.5%. For the same compound, the “% NEUT” value ([1]; male, Day 1 (pre-dose)) was 55.4%, the HCT ([1]; male, Day 1 (pre-dose)) was 40.8% and the HGB ([1]; male, Day 1 (pre-dose)) was 132 g/L. For the same compound, the LYM ([1]; male, Day 1 (pre-dose)) was 36.7%, the MCH ([1]; male, Day 1 (pre-dose)) was 25.4 pg and the MCHC ([1]; male, Day 1 (pre-dose)) was 324 g/L. The MCV ([1]; male, Day 1 (pre-dose)) was 78.3 fL, the MPV ([1]; male, Day 1 (pre-dose)) was 10.2 fL and the PCT ([1]; male, Day 1 (pre-dose)) was 0.365%. The PDW ([1]; male, Day 1 (pre-dose)) was 15.1, the PLT ([1]; male, Day 1 (pre-dose)) was 3.58e+11 L⁻¹ and the RBC ([1]; male, Day 1 (pre-dose)) was 5.2e+12 L⁻¹. The RDW-CV ([1]; male, Day 1 (pre-dose)) was 11.6%, the RDW-SD ([1]; male, Day 1 (pre-dose)) was 38.2 fL and the WBC ([1]; male, Day 1 (pre-dose)) was 5.33e+09 L⁻¹. The abs_basos ([1]; male, Day 1 (pre-dose)) was 0 L⁻¹, the abs_eos ([1]; male, Day 1 (pre-dose)) was 1.3e+08 L⁻¹ and the abs_lymphs ([1]; male, Day 1 (pre-dose)) was 1.95e+09 L⁻¹. For the same compound, the abs_monos ([1]; male, Day 1 (pre-dose)) was 2.9e+08 L⁻¹, the abs_neuts ([1]; male, Day 1 (pre-dose)) was 2.96e+09 L⁻¹ and the “% BASO” value ([1]; male, Day 8 (pre-dose)) was 0.7%. The “% EOS” value ([1]; male, Day 8 (pre-dose)) was 3.0%, the “% MONO” value ([1]; male, Day 8 (pre-dose)) was 0.0% and the “% NEUT” value ([1]; male, Day 8 (pre-dose)) was 80.9%. For the same compound, the HCT ([1]; male, Day 8 (pre-dose)) was 44.70%, the HGB ([1]; male, Day 8 (pre-dose)) was 146.00 g/L and the LYM ([1]; male, Day 8 (pre-dose)) was 15.4%. For the same compound, the MCH ([1]; male, Day 8 (pre-dose)) was 24.90 pg, the MCHC ([1]; male, Day 8 (pre-dose)) was 327.00 g/L and the MCV ([1]; male, Day 8 (pre-dose)) was 76.20 fL. For the same compound, the MPV ([1]; male, Day 8 (pre-dose)) was 10.60 fL, the PCT ([1]; male, Day 8 (pre-dose)) was 0.52% and the PDW ([1]; male, Day 8 (pre-dose)) was 15.70. The PLT ([1]; male, Day 8 (pre-dose)) was 4.9e+11 L⁻¹, the RBC ([1]; male, Day 8 (pre-dose)) was 5.86e+12 L⁻¹ and the RDW-CV ([1]; male, Day 8 (pre-dose)) was 11.90%. It also gave an RDW-SD ([1]; male, Day 8 (pre-dose)) of 38.00 fL, a WBC ([1]; male, Day 8 (pre-dose)) of 1.166e+10 L⁻¹ and an abs_basos ([1]; male, Day 8 (pre-dose)) of 8e+07 L⁻¹. It also gave an abs_eos ([1]; male, Day 8 (pre-dose)) of 3.5e+08 L⁻¹, an abs_lymphs ([1]; male, Day 8 (pre-dose)) of 1.79e+09 L⁻¹ and an abs_monos ([1]; male, Day 8 (pre-dose)) of 0 L⁻¹. The abs_neuts ([1]; male, Day 8 (pre-dose)) was 9.44e+09 L⁻¹, the Plasma concentration ([2]; 2 hr, female) was “BQL” and the AUC(0-inf) ([2]; both sexes, Mean) was 770 ng·h/mL. The AUC(0-t) ([2]; both sexes, Mean) was 766 ng·h/mL, the AUC(0-inf) ([2]; female) was 766 ng·h/mL and the AUC(0-t) ([2]; female) was 758 ng·h/mL. For the same compound, the AUC(0-inf) ([2]; male) was 774 ng·h/mL and the AUC(0-t) ([2]; male) was 773 ng·h/mL.
